In article PMC10614203, “Synthesis, Structure–Activity Relationships, Radiofluorination, and Biological Evaluation of [^18F]RM365, a Novel Radioligand for Imaging the Human Cannabinoid Receptor Type 2 (CB2R) in the Brain with PET” (Journal of Medicinal Chemistry, 2023):
Where two headings read alike, the source gives them in different places.

Assays:
[1] = Lipophilicity log D7.4, shake flask method, n-octanol/PBS; assay type: physicochemical; settings: n-octanol/PBS 0.01 M, pH 7.4, room temperature
Protocol: The most efficient protocol for the manual radiosynthesis of [^18F]RM365 was transferred to an automated synthesis module (Elysia-Raytest radiosynthesizer). For the biological evaluation, [^18F]RM365 was obtained with a moderate radiochemical yield of about 5% and high radiochemical purities (>99%), molar activity of about 80 GBq/μmol in a total synthesis time of 60 min (n = 6) starting with activities ranging from 8 to 13 GBq. […] RP and chiral HPLC analysis of the final product coeluted with the corresponding reference compound RM365 confirmed the identity and enantiopurity of the radioligand (Figure 5B). A log D7.4 of 3.0 ± 0.1 was determined by the shake flask method.[80],[81]
Log D7.4 of [^18F]RM365 was experimentally determined in n-octanol/PBS, 0.01 M, pH 7.4, at room temperature by the shake flask method. The measurement was performed twice in triplicate.[87]

hCB2R(D80N) = biological target: T1, hCB2R(D80N) (Homo sapiens, UniProt P34972, D80N); assay type: in vivo; settings: for reduction of the normalized AUC between 20 and 60 min p.i.: GW405833 i.v. 20 min after radioligand
T1 construct: expressed in transfected cells; host or cells: neurons of the right striatum of male Wistar rats, transduced in vivo with the AAV2/7-CaMKII0.4-intron-hCB2R(D80N) vector
Excerpt: In a proof-of-concept study, the specific binding to the human CB2R and the ability to cross the blood–brain barrier of [^18F]RM365 in vivo was investigated by PET imaging experiments using an established rat model with a local overexpression of hCB2R(D80N) in the right striatum (target region).[32],[66] Exemplary images of the averaged time frames of the PET study, as well as the TACs of the target region and both reference regions on the contralateral site and the cerebellum, are shown in Figure 10. […] However, the TAC peak value was four to five times lower in the reference regions, which was reflected by the seven to eight times lower accumulated activity over time expressed as the area under the curve (AUC) of [^18F]RM365 (Table 3). The high signal-to-background ratio is reflected by a SUVr of 15 ± 5 and 20 ± 5 for the target region-to-contralateral and -cerebellum ratios, respectively, at 60 min p.i. […] Additionally, we investigated the reversibility of the binding toward the human CB2R receptor in vivo in displacement studies by administering the CB2R-specific agonist GW405833 into the tail vein 20 min after the radioligand injection into the hCB2R(D80N)-overexpressing rat model (Figure 10B, Table 3). […] The signal in the contralateral side (p-value = 0.1621, two-way ANOVA) and in the cerebellum (p-value = 0.6177, two-way ANOVA) was not affected by the treatment over time with GW405833 (Figure S6), underlining the eligibility of these reference regions.
In vivo biodistribution studies of [^18F]RM365 were performed in female CD-1 mice (n = 4, 31 ± 3 g) and female Wistar rats (n = 4, 150 ± 11 g). For the uptake studies into the brain, male Wistar rats carrying the stereotactically injected AAV2/7-CaMKII0.4-intron-hCB2R(D80N) (right striatum) and AAV2/7-CaMKII0.4-intron-3flag-eGFP (control/contralateral, left striatum) were used (n = 6; bodyweights were 260 ± 11 g). Data were assessed by dynamic small animal PET (Nanoscan, Mediso, Budapest, Hungary) in 60 min recordings, followed by T1-weighted (GRE, TR/TE = 15.0/2.4 ms, 252/252, FA = 25°) MR imaging with whole-body coils for anatomical correlation and attenuation correction.
The PET scans were performed 3−4 months after the stereotactic injections. Animals were initially anesthetized with 5% isoflurane and placed on a thermostatically heated animal bed, where anesthesia was maintained with 2% isoflurane in 60% oxygen/38% room air. […] Nonparametric (semiquantitative) analysis of achieved time–activity curves (TACs) was performed with Microsoft Excel to determine the time to peak, the TAC peak value, and the area under the curve (AUC) [drawing 1] where c (radioactivity) is expressed as the standardized uptake value normalized to the bodyweight in g (SUV). […]

[2] = male, Wistar, rat, in vivo, 60 min

T1 sequence (P34972 whole entry D80N): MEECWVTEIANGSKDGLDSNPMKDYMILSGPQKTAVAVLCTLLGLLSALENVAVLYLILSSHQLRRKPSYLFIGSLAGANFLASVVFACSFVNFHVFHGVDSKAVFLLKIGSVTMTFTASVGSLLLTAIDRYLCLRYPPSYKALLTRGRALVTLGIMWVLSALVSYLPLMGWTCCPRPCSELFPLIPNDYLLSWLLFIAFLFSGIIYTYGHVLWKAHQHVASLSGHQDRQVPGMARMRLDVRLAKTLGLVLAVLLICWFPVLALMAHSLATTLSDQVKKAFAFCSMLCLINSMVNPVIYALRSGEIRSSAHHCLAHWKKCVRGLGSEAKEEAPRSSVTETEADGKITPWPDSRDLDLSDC

logD [1]: 3 ± 0.1
reduction of the normalized AUC between 20 and 60 min p.i. (hCB2R(D80N); cerebellum as reference region): 70%
reduction of the normalized AUC between 20 and 60 min p.i. (hCB2R(D80N); contralateral site as reference region): 64%
SUVr target region-to-cerebellum (hCB2R(D80N); [2]): 20 ± 5
SUVr target region-to-contralateral (hCB2R(D80N); [2]): 15 ± 5
Structure (SMILES): CC1(C)Cc2ccc(C#N)cc2[C@@H]1NC(=O)c1cc2cc([18F])ccc2[nH]1 [[^18F]RM365]
